Paper PMC9916685, “Discovery of Small Molecule COX-1 and Akt Inhibitors as Anti-NSCLC Agents Endowed with Anti-Inflammatory Action” (International Journal of Molecular Sciences, 2023)

Columns and labels:
COX-1 = biological target: T1, COX-1 (Ovis aries, UniProt P05979); assay: COX (ovine) colorimetric inhibitor screening assay, COX-1; type: biochemical; conditions: for IC50: ovine COX-1, colorimetric, triplicate, mean ± SD; for SI (IC50 for COX-1/IC50 for COX-2): selectivity index
T1 construct: purchased Cayman
T1 sequence (P05979 25-600): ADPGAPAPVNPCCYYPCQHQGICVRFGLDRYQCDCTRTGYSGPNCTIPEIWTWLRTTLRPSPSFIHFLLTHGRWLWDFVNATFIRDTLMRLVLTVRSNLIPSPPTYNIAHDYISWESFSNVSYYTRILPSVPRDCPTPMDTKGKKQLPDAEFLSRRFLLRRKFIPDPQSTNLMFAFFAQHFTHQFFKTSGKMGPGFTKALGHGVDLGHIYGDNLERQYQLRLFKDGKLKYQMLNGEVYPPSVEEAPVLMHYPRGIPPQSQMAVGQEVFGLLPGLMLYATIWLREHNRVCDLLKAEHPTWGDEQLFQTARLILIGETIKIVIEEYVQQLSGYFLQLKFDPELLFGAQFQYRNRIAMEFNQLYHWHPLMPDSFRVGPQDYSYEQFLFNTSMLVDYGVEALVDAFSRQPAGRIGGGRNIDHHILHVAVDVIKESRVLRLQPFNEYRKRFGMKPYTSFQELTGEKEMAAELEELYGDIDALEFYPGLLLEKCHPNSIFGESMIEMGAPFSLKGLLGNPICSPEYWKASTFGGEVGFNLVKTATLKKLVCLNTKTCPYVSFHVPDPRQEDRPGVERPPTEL
Protocol: (§1) COX (ovine) Colorimetric Inhibitor Screening Assay (Cayman, Ann Arbor, MI, USA) was conducted to detect the peroxidase component of COX-1 and COX-2 according to the manufacturer’s instructions. The assay was performed in triplicate. Half maximal inhibitory concentration (IC50) data (µM) were expressed as mean ± SD.

COX-2 = biological target: T2, COX-2 (Ovis aries, UniProt P79208); assay: COX (ovine) colorimetric inhibitor screening assay, COX-2; type: biochemical; conditions: ovine COX-2, colorimetric, triplicate, mean ± SD
T2 construct: purchased Cayman
T2 sequence (P79208 17-603): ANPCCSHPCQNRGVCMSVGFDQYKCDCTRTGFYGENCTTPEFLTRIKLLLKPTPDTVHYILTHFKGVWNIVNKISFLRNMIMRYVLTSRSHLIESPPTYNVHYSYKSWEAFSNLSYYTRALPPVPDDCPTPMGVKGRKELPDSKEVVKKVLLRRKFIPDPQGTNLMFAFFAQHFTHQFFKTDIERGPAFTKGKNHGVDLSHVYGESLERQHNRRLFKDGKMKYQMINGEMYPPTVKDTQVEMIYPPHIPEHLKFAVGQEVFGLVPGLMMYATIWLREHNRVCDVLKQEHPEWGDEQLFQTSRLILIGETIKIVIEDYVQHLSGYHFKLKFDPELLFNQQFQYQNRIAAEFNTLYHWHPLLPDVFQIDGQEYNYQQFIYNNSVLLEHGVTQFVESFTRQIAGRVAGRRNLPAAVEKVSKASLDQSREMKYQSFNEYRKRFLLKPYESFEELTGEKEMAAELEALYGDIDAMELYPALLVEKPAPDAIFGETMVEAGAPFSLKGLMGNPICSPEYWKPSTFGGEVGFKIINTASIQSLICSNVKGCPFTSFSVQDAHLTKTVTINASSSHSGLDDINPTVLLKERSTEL
Protocol: as §1

[1] = system: L929 mouse fibroblast (normal) cells; assay: MTT cytotoxicity assay, L929 normal cells; type: cell-based; conditions: MTT, L929 mouse fibroblast cells, mean ± SD
Protocol: A549 human lung adenocarcinoma and L929 mouse fibroblast cell lines were obtained from American Type Culture Collection (ATCC) (Manassas, VA, USA). Both cell lines were cultured, and drug treatments were carried out as previously reported.
MTT assay was conducted as previously explained in the literature with small modifications. Cisplatin was used as a positive control. The assay was performed in triplicate. IC50 data (µM) were expressed as mean ± SD.

CN1CCN(c2ccc(C=NNC(=O)Cc3c[nH]c4ccccc34)cc2)CC1 [Compound 3d, 2-(1H-Indol-3-yl)-N′-[4-(4-methylpiperazin-1-yl)benzylidene]acetohydrazide]
melting point: 218 to 220 °C
IC50 (COX-1): 78.5 ± 8.5 µM
SI (IC50 for COX-1/IC50 for COX-2) (COX-1): <0.79
IC50 (COX-2): > 100 µM
IC50 [1]: 20 ± 1.73 µM

O=C(Cc1c[nH]c2ccccc12)NNC(=S)Nc1ccc(S(=O)(=O)N2CCCCC2)cc1 [Compound 4d, 4-[4-(Piperidin-1-ylsulfonyl)phenyl]-1-[2-(1H-indol-3-yl)acetyl]thiosemicarbazide]
melting point: 182 to 184 °C
IC50 (COX-1): > 100 µM
SI (IC50 for COX-1/IC50 for COX-2) (COX-1): >1.69
IC50 (COX-2): 59 ± 8.48 µM
IC50 [1]: 45.7 ± 6.03 µM

CC(=NNC(=O)Cc1c[nH]c2ccccc12)c1ccc(S(C)(=O)=O)cc1 [Compound 3f, 2-(1H-Indol-3-yl)-N′-[1-(4-methylsulfonylphenyl)ethylidene]acetohydrazide]
melting point: 204 to 205 °C
IC50 (COX-1): 93.7 ± 6.25 µM
SI (IC50 for COX-1/IC50 for COX-2) (COX-1): 1.84
IC50 (COX-2): 51 ± 12.7 µM
IC50 [1]: < 3.9 µM

O=C(Cc1c[nH]c2ccccc12)NNC(=S)Nc1ccc2c(c1)OCO2 [Compound 4f, 4-(1,3-Benzodioxol-5-yl)-1-[2-(1H-indol-3-yl)acetyl]thiosemicarbazide]
melting point: 168 to 170 °C
IC50 (COX-1): > 100 µM
SI (IC50 for COX-1/IC50 for COX-2) (COX-1): >1.94
IC50 (COX-2): 51.5 ± 0.71 µM
IC50 [1]: 14 ± 5.29 µM

COc1ccc2[nH]cc(C=NNC(=O)Cc3c[nH]c4ccccc34)c2c1 [Compound 3j, 2-(1H-Indol-3-yl)-N′-[(5-methoxy-1H-indol-3-yl)methylene]acetohydrazide]
IC50 (COX-1): > 100 µM
SI (IC50 for COX-1/IC50 for COX-2) (COX-1): >2.25
IC50 (COX-2): 44.5 ± 6.36 µM
IC50 [1]: 43 ± 1.73 µM

O=C(Cc1c[nH]c2ccccc12)NN=Cc1ccc(N2CCCC2)cc1 [Compound 3a, 2-(1H-Indol-3-yl)-N′-[4-(pyrrolidin-1-yl)benzylidene]acetohydrazide]
melting point: 302 to 303 °C
IC50 (COX-1): 10.3 ± 0.35 µM
SI (IC50 for COX-1/IC50 for COX-2) (COX-1): 0.83
IC50 (COX-2): 12.5 ± 0.71 µM
IC50 [1]: 17.3 ± 2.08 µM

O=C(Cc1c[nH]c2ccccc12)NNC(=S)Nc1ccc(C(F)(F)F)cc1 [Compound 4b, 4-(4-Trifluoromethylphenyl)-1-[2-(1H-indol-3-yl)acetyl]thiosemicarbazide]
melting point: 184 to 186 °C
IC50 (COX-1): > 100 µM
SI (IC50 for COX-1/IC50 for COX-2) (COX-1): >1.63
IC50 (COX-2): 61.5 ± 0.71 µM
IC50 [1]: 22.7 ± 2.08 µM

O=C(Cc1c[nH]c2ccccc12)NNC(=S)Nc1ccc(-n2cccn2)cc1 [Compound 4e, 4-[4-(1H-Pyrazol-1-yl)phenyl]-1-[2-(1H-indol-3-yl)acetyl]thiosemicarbazide]
melting point: 196 to 198 °C
IC50 (COX-1): > 100 µM
SI (IC50 for COX-1/IC50 for COX-2) (COX-1): >3.17
IC50 (COX-2): 31.5 ± 2.12 µM
IC50 [1]: 62.3 ± 7.51 µM

O=C(Cc1c[nH]c2ccccc12)NNC(=S)Nc1ccc(OCc2ccccc2)cc1 [Compound 4g, 4-[4-(Benzyloxy)phenyl]-1-[2-(1H-indol-3-yl)acetyl]thiosemicarbazide]
melting point: 198 to 200 °C
IC50 (COX-1): > 100 µM
SI (IC50 for COX-1/IC50 for COX-2) (COX-1): >1.68
IC50 (COX-2): 59.5 ± 2.12 µM
IC50 [1]: 14 ± 3.46 µM

O=C(Cc1c[nH]c2ccccc12)NN=Cc1ccc(N2CCCCC2)cc1 [Compound 3c, 2-(1H-Indol-3-yl)-N′-[4-(piperidin-1-yl)benzylidene]acetohydrazide]
melting point: 265 to 266 °C
IC50 (COX-1): > 100 µM
IC50 (COX-2): > 100 µM
IC50 [1]: 21.3 ± 0.58 µM

O=C(Cc1c[nH]c2ccccc12)NN=Cc1ccc(OCCN2CCOCC2)cc1 [Compound 3h, 2-(1H-Indol-3-yl)-N′-[4-(2-morpholinoethoxy)benzylidene]acetohydrazide]
melting point: 132 to 135 °C
IC50 (COX-1): 38.5 ± 1.5 µM
SI (IC50 for COX-1/IC50 for COX-2) (COX-1): 0.76
IC50 (COX-2): 50.5 ± 0.7 µM
IC50 [1]: < 3.9 µM

Cn1cc(C=NNC(=O)Cc2c[nH]c3ccccc23)c2ccccc21 [Compound 3i, 2-(1H-Indol-3-yl)-N′-[(1-methyl-1H-indol-3-yl)methylene]acetohydrazide]
melting point: 221 to 224 °C
IC50 (COX-1): 31.2 ± 1.25 µM
SI (IC50 for COX-1/IC50 for COX-2) (COX-1): <0.31
IC50 (COX-2): > 100 µM
IC50 [1]: 42.3 ± 0.58 µM

CS(=O)(=O)c1ccc(C=NNC(=O)Cc2c[nH]c3ccccc23)cc1 [Compound 3e, 2-(1H-Indol-3-yl)-N′-(4-methylsulfonylbenzylidene)acetohydrazide]
melting point: 264 to 265 °C
IC50 (COX-1): 83.8 ± 6.25 µM
SI (IC50 for COX-1/IC50 for COX-2) (COX-1): 2.39
IC50 (COX-2): 35 ± 9.9 µM
IC50 [1]: 85 ± 17.3 µM

CC(=NNC(=O)Cc1c[nH]c2ccccc12)c1ccc(N2CCOCC2)cc1 [Compound 3g, 2-(1H-Indol-3-yl)-N′-[1-(4-morpholinophenyl)ethylidene]acetohydrazide]
melting point: 198 to 199 °C
IC50 (COX-1): 51 ± 1 µM
SI (IC50 for COX-1/IC50 for COX-2) (COX-1): 0.97
IC50 (COX-2): 52.5 ± 0.71 µM
IC50 [1]: < 3.9 µM

N#Cc1ccc(NC(=S)NNC(=O)Cc2c[nH]c3ccccc23)cc1 [Compound 4c, 4-(4-Cyanophenyl)-1-[2-(1H-indol-3-yl)acetyl]thiosemicarbazide]
melting point: 180 to 182 °C
IC50 (COX-1): > 100 µM
SI (IC50 for COX-1/IC50 for COX-2) (COX-1): >1.77
IC50 (COX-2): 56.5 ± 4.49 µM
IC50 [1]: 26.3 ± 3.51 µM
